Like-named read-outs stand apart in the source and are kept apart here. One block for each molecule: values may come before it.
How the values were obtained:
[1] = molecular target: T1, A2BAR (Homo sapiens, UniProt P29275); test: cAMP accumulation in 1321N1 astrocytoma cells endogenously expressing the A2BAR; details: for Emax: 1321-N1, read-out: Max effect cAMP accumulation
T1 sequence (P29275 1-332): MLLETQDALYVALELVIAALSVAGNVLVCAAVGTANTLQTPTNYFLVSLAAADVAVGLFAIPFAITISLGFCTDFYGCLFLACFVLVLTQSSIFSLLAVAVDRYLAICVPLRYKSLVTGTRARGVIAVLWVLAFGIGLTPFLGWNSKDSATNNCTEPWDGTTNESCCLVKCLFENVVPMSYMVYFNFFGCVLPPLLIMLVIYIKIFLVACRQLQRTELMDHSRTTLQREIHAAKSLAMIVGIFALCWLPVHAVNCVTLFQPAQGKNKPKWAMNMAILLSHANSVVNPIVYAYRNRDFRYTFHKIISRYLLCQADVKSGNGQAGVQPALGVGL

[2] = molecular target: T1, A2BAR; test: cAMP accumulation in HEK293 cells overexpressing the A2BAR; details: for Emax: HEK293, read-out: Max effect cAMP (% of effect of NECA); for τ: operational model, A2BAR-overexpressing HEK293
[3] = molecular target: T1, A2BAR; test: cAMP accumulation in T24 cells endogenously expressing the A2BAR; details: for Emax: T-24, read-out: Max effect cAMP (% of effect of NECA)
[4] = molecular target: T1, A2BAR; test: ERK1/2 phosphorylation in HEK293 cells; details: for Emax: HEK293, read-out: Max effect ERK1/2 (% of effect of NECA)
[5] = system: mouse A2BAR; test: β-Arrestin2 translocation in PathHunter CHO cells; details: for ΔΔlog (τ/KA): β-Arrestin versus cAMP reference pathway; for Bias: β-Arrestin versus cAMP, bias ≫1 disfavors the pathway
[6] = molecular target: T2, mouse A2BAR (Mus musculus, UniProt Q60614); test: β-Arrestin2 translocation in PathHunter CHO cells; details: for Emax: CHO, read-out: Max effect β-arrestin (% of effect of NECA); for log (τ/KA) / τ / Δlog (τ/Ka): β-Arrestin pathway; for τ: operational model, CHO mouse A2BAR; for Δlog (τ/Ka): relative to NECA
T2 sequence (Q60614 1-332): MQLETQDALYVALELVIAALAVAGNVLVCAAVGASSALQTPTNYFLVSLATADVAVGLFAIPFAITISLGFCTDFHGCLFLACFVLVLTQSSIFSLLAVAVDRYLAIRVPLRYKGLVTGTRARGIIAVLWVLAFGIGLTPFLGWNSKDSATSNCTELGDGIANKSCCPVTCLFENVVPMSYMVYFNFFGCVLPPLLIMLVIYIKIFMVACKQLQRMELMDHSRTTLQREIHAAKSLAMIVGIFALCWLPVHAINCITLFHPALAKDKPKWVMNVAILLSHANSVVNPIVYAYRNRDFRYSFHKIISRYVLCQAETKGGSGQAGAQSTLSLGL

[7] = molecular target: T1, A2BAR; test: cAMP accumulation in HEK293 cells endogenously expressing the A2BAR; details: for Emax: HEK293, read-out: Max effect cAMP (% of effect of NECA)
[8] = molecular target: T1, A2BAR; test: cAMP accumulation in WM266 melanoma cells endogenously expressing the A2BAR; details: for Emax: WM266, read-out: Max effect cAMP accumulation
[9] = molecular target: T1, A2BAR; test: ERK1/2 phosphorylation in T24 cells; details: for Emax: T-24, read-out: Max effect ERK1/2 (% of effect of NECA)
[10] = molecular target: T1, A2BAR; test: Intracellular calcium mobilization in HEK293 cells; details: HEK293, read-out: Max effect Calcium (% of effect of NECA)
[11] = system: A2BAR; test: cAMP accumulation in COS-7 cells endogenously expressing the A2BAR; details: for Max effect cAMP accumulation: NECA = 100; for EC50: read-out: EC50 cAMP accumulation
[12] = molecular target: T1, A2BAR; details: for Emax: PC-3, read-out: Max effect cAMP accumulation
[13] = molecular target: T1, A2BAR; test: ERK1/2 phosphorylation in HEK293 cells overexpressing the A2BAR; details: for log (τ/KA) / τ / Δlog (τ/Ka): ERK1/2 pathway; for τ: operational model, A2BAR-overexpressing HEK293; for Δlog (τ/Ka): relative to NECA; for ΔΔlog (τ/KA): ERK1/2 versus cAMP reference pathway; for Bias: ERK1/2 versus cAMP, bias ≫1 disfavors the pathway; for Emax: HEK293, read-out: Max effect ERK1/2 (% of effect of NECA)
[14] = molecular target: T1, A2BAR; test: Intracellular calcium mobilization in HEK293 cells overexpressing the A2BAR; details: for τ: operational model, A2BAR-overexpressing HEK293; for Bias: Calcium versus cAMP, bias ≫1 disfavors the pathway
[15] = molecular target: T1, A2BAR; test: Intracellular calcium mobilization in T24 cells; details: for Emax: T-24, read-out: Max effect Calcium (% of effect of NECA)
[16] = system: A1 and A3 ARs; test: Inhibition of forskolin-stimulated cAMP accumulation
[17] = system: MIN-6 mouse pancreatic β cells; test: Insulin release in MIN6 cells; type: cell-based; details: MIN-6 cells, 16.7 mM glucose, 1 h

EC50 [1]: 1010 ± 180 nM
Emax [1]: 89.8 ± 9.2%
EC50 [2]: 25.3 ± 7.8 nM
Kd [2]: 7760 nM
Emax [2]: 93.2 ± 4.5%
log (τ/KA) ([2]; cAMP pathway): 7.17 ± 0.68
τ ([2]; cAMP pathway): 116
Δlog (τ/Ka) ([2]; cAMP pathway, relative to NECA): -0.25 ± 0.02
EC50 [3]: 899 ± 226 nM
Emax [3]: 77.7 ± 3.3%
EC50 [4]: 1530 ± 340 nM
Emax [4]: 46.1 ± 9.2%
EC50 [6]: 48100 nM
Kd [6]: 83400 nM
Emax [6]: 40.9 ± 2.9%
log (τ/KA) [6]: 4.10 ± 0.22
τ [6]: 1.04
Δlog (τ/Ka) [6]: -1.63 ± 0.20
EC50 [7]: 1130 ± 340 nM
Emax [7]: 68.7 ± 11.1%
EC50 [8]: 1270 ± 220 nM
Emax [8]: 48.3 ± 4.9%
ERK1/2 phosphorylation, increase above basal value ([9]; T24 cells, 10 μM): ~13%
Emax [9]: 13.1 ± 4.5%
Emax [10]: 7.1 ± 3.2%
EC50 [11]: 418 ± 22 nM
EC50 [12]: 321 ± 66 nM
Emax [12]: 89.4 ± 2.6%
EC50 [13]: 2680 ± 460 nM
Kd [13]: 5260 nM
log (τ/KA) [13]: 5.11 ± 0.52
τ [13]: 0.68
Δlog (τ/Ka) [13]: -0.52 ± 0.04
ΔΔlog (τ/KA) [13]: 0.27
Bias [13]: 1.86
Emax [13]: 36.3 ± 5.2%
EC50 [14]: 7150 ± 2360 nM
Kd [14]: 84700 nM
log (τ/KA) ([14]; Calcium pathway): 3.84 ± 0.19
τ ([14]; Calcium pathway): 0.59
Δlog (τ/Ka) ([14]; Calcium pathway, relative to NECA): -1.20 ± 0.13
Bias [14]: 85
EC50 [15]: 6170 ± 1990 nM
Emax [15]: 36.9 ± 8.6%
Compound: OC[C@H]1O[C@@H](n2cnc3c(Nc4ccc(I)cc4)ncnc32)[C@H](O)[C@@H]1O [MRS5911, N^6-(4-iodophenyl)adenosine]
ΔΔlog (τ/KA) [5]: 1.38
Bias [5]: 24
Max effect cAMP accumulation [11]: 99.3±2.1%

EC50 [1]: 1260 ± 180 nM
Emax [1]: 98.4 ± 3.1%
EC50 [2]: 62.9 ± 7.6 nM
Kd [2]: 6700 nM
Emax [2]: 102 ± 6.6%
log (τ/KA) ([2]; cAMP pathway): 6.83 ± 0.45
τ ([2]; cAMP pathway): 45.1
EC50 [3]: 745 ± 225 nM
Emax [3]: 94.9 ± 2.2%
EC50 [4]: 166 ± 32 nM
Emax [4]: 42.3 ± 9.4%
Kd [6]: 18100 nM
Emax [6]: 28.1 ± 3.5%
log (τ/KA) [6]: 4.17 ± 0.23
τ [6]: 0.27
Δlog (τ/Ka) [6]: -1.56 ± 0.18
EC50 [7]: 1020 ± 250 nM
Emax [7]: 96.2 ± 24.3%
EC50 [8]: 1870 ± 320 nM
Emax [8]: 96.2 ± 1.8%
ERK1/2 stimulation ([9]; T24 cells): did not produce any stimulation
Emax [9]: -8.2 ± 7.6%
Emax [10]: 1.6 ± 2.2%
EC50 [11]: 226 ± 32 nM
EC50 [12]: 480 ± 32 nM
Emax [12]: 98.2 ± 7.7%
EC50 [13]: 203 ± 48 nM
Kd [13]: 362 nM
log (τ/KA) [13]: 6.08 ± 0.89
τ [13]: 0.44
Δlog (τ/Ka) [13]: 0.45 ± 0.03
ΔΔlog (τ/KA) [13]: 0.14
Bias [13]: 1.38
Emax [13]: 29.7 ± 2.6%
Kd [14]: 7100 nM
log (τ/KA) ([14]; Calcium pathway): 3.35 ± 0.44
τ ([14]; Calcium pathway): 0.02
ΔΔlog (τ/KA) ([14]; Calcium versus cAMP reference pathway): 4.06
Bias [14]: 11500
Emax [15]: -2.7 ± 3.2%
Compound: Nc1nc(OCCc2c[nH]c3cc(Br)ccc23)nc2c1ncn2[C@@H]1O[C@H](CO)[C@@H](O)[C@H]1O [MRS3997, 2-(2-(6-bromo-indol-3-yl)ethyloxy)adenosine]
ΔΔlog (τ/KA) [5]: 2.15
Bias [5]: 141
Max effect cAMP accumulation [11]: 100±6%

Compound: N#Cc1c(N)nc(SCc2ncc[nH]2)c(C#N)c1-c1ccccc1 [LUF5833, 2-aminophenyl-6-(1H-imidazol-2-ylmethylsulfanyl)pyridine-3,5-dicarbonitrile]
Max effect β-arrestin (% of effect of NECA) ([6]; PathHunter CHO cells, mouse A2BAR): 9.7 ±0.6%

Compound: CNC(=O)[C@H]1O[C@@H](n2cnc3c(NCc4cccc(I)c4)nc(Cl)nc32)[C@H](O)[C@@H]1O [Cl-IB-MECA]
inhibition of forskolin-stimulated cAMP accumulation [16]: inactive

Compound: CCCn1c(=O)[nH]c2nc(-c3ccc(S(=O)(=O)N4CCN(c5ccc(Cl)cc5)CC4)cc3)[nH]c2c1=O [PSB603]
Glucose stimulated insulin secretion [17]: induced insulin secretion

Source: publication PMC4128710 (Biochemical pharmacology, 2014)
